Here are results for 21 molecules from patent EP4782445A1, “CDK KINASE INHIBITOR AND USE THEREOF” (Abbisko Therapeutics Co., Ltd., priority 2023, dated 2025).

Assay [1] addresses T1, CDK4/cyclin D3 (Homo sapiens, UniProt P11802).
T1 construct: purchased Carna
The assay can be described thus: In vitro biochemical kinase activity assay for CDK4/cyclin D3 (HTRF). The method, then:
II. In Vitro Biochemical Kinase Activity Assay for CDK4/Cyclin D3
The inhibitory effects of the compounds of the present invention on CDK4/cyclin D3 kinase activity were determined using an HTRF assay. The experimental process was as follows: • 1. The kinase reaction was carried out in a 384-well plate. 4.9 nM CDK4/cyclin D3 (Carna), 1 mM (or 80 µM) ATP, and 0.3 µM biotin-labeled substrate protein Rb-biotin (Cisbio) were incubated at 30°C for 90 min in a buffer system composed of 50 mM MgCl2, 1 mM DTT, and basal kinase buffer (Cisbio). • 2. The detection solution (Cisbio, containing reagents that specifically recognize phosphorylated Rb and Rb-biotin proteins, respectively) was added. The plate was then sealed with a film (to protect from light and volatilization) and incubated at 25°C for 60 min. • 3. The plate was transferred to an Envision plate reader to detect FRET signals. (The 665/615 ratio was calculated by reading the emission at 665 nm and 615 nM, respectively.) • 4. The IC50 values were determined by analyzing the inhibition at varying compound concentrations using Model 205 in the XLfit software.
(Time-resolved FRET reads energy transfer from a long-lived donor to a nearby acceptor.)

The target in assay [2] is T2, CDK6/cyclin D3 (Homo sapiens, UniProt Q00534).
T2 construct: purchased Carna
The assay can be described thus: In vitro biochemical kinase activity assay for CDK6/cyclin D3 (HTRF). The method, then:
III. In Vitro Biochemical Kinase Activity Assay for CDK6/Cyclin D3
The inhibitory effects of the compounds of the present invention on CDK6/cyclin D3 kinase activity were determined using an HTRF assay. The experimental process was as follows: 1. The kinase reaction was carried out in a 384-well plate. 0.02 nM CDK6/cyclin D3 (Carna), 1 mM (or 100 µM) ATP, and 0.3 µM biotin-labeled substrate protein Rb-biotin (Cisbio) were incubated at 30°C for 60 min in a buffer system composed of 5 mM MgCl2, 1 mM DTT, and basal kinase buffer (Cisbio). 2. The detection solution (Cisbio, containing reagents that specifically recognize phosphorylated Rb and Rb-biotin proteins, respectively) was added. The plate was then sealed with a film (to protect from light and volatilization) and incubated at 25°C for 60 min. 3. The plate was transferred to an Envision plate reader to detect FRET signals. (The 665/615 ratio was calculated by reading the emission at 665 nm and 615 nM, respectively.) 4. The IC50 values were determined by analyzing the inhibition at varying compound concentrations using Model 205 in the XLfit software.

The mark [3] stands for this setting: data marked with *: 1 mM ATP in Step 1.
[4] abbreviates: unmarked data: 100 µM ATP in Step 1.

T2 sequence (Q00534 whole entry): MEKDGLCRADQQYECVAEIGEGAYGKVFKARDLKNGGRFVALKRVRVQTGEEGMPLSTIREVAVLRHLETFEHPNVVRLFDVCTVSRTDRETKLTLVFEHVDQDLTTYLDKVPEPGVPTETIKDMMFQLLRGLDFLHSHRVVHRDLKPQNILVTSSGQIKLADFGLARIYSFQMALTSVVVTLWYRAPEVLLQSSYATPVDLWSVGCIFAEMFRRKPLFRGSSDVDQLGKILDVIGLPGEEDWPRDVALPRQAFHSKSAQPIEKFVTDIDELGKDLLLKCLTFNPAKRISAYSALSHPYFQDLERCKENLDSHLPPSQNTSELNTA
T2 sequence (P30281 whole entry partner): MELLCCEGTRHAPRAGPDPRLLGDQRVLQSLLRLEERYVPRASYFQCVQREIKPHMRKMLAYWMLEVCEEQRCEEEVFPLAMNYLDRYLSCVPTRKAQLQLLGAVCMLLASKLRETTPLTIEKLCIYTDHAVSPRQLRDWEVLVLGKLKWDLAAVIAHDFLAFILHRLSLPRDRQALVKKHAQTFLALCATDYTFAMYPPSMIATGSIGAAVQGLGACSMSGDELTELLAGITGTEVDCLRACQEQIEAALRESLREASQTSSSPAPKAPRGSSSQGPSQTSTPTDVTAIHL
T1 sequence (P11802 whole entry): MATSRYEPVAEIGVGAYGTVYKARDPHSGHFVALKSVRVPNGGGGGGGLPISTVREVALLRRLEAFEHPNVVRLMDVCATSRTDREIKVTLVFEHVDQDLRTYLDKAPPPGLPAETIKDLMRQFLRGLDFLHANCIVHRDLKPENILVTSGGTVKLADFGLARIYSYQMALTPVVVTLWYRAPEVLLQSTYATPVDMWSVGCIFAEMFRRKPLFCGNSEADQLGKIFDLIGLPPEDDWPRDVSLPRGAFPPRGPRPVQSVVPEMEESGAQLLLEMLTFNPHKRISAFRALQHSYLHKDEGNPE
T1 sequence (P30281 whole entry partner): as the sequence (P30281 whole entry partner) above

As to `CC(C)c1c(C#Cc2nc(Nc3ccc(N4CC5(CN(C)C5)C4)cn3)ncc2F)cnn1C` [Example 93, 5-fluoro-4-((5-isopropyl-1-methyl-1H-pyrazol-4-yl)ethynyl)-N-(5-(6-methyl-2,6-diazaspiro[3 .3]heptan-2-yl)pyridin-2-yl)pyrimidin-2-amine], the values for the IC50 in assay [1] (setting [3]) and in assay [2] (setting [3]) were 7.28 nM and 33.7 nM, respectively.
As for `CC(C)n1c(C#Cc2nc(Nc3ccc(C4C5CN(C)CC54)cn3)ncc2Cl)cnc1C(C)(C)O` (stereo not drawn) [Example 119, 2-(5-((5-chloro-2-((5-(3-methyl-3-azabicyclo[3.1.0]hexan-6-yl)pyridin-2-yl)amino)pyrimidin-4-yl)ethynyl)-1-isopropyl-1H-imidazol-2-yl)propan-2-ol], the 50% inhibitory concentration (IC50) in assay [1] (setting [3]) turned out to be 5.37 nM; in assay [2] (setting [3]) it was 15.4 nM.
For `CCN1CC2(C1)CN(c1ccc(Nc3ncc(Cl)c(C#Cc4cnc(CN5[C@@H](C)COC[C@@H]5C)n4C(C)C)n3)nc1)C2` [Example 104, 5-chloro-4-((2-(((3 S,5 S)-3,5-dimethylmorpholino)methyl)-1-isopropyl-1H-imidazol-5-yl)ethynyl)-N-(5-(6-ethyl-2,6-diazaspiro[3.3]heptan-2-yl)pyridin-2-yl)pyrimidin-2-amine], in that order: 5.57 nM and 45.2 nM.
Regarding `CC(C)n1c(C#Cc2nc(N[C@@H]3CCOC[C@H]3O)ncc2Cl)cnc1C(=O)N1CCC[C@H](O)C1` [Example 117, (5-((5-chloro-2-(((3 S,4R)-3-hydroxytetrahydro-2H-pyran-4-yl)amino)pyrimidin-4-yl)ethynyl)-1-isopropyl-1H-imidazol-2-yl)((S)-3-hydroxypiperidin-1-yl)methanone], the IC50 in assay [1] (setting [3]) was determined as 615 nM; in assay [2] (setting [3]) it was 5550 nM.
For `CC(C)n1c(C#Cc2nc(N[C@@H]3CCOC[C@H]3O)ncc2Cl)cnc1CN1CCC[C@H](F)C1` [Example 105, (3S,4R)-4-((5-chloro-4-((2-(((S)-3-fluoropiperidin-1-yl)methyl)-1-isopropyl-1H-imidazol-5-yl)ethynyl)pyrimidin-2-yl)amino)tetrahydro-2H-pyran-3-ol], in that order: 26.4 nM and 413 nM.
Regarding `CC(=O)N1CC2(C1)CN(c1ccc(Nc3ncc(F)c(C#Cc4cnn(C)c4C(C)C)n3)nc1)C2` [Example 89, 1-(6-(6-((5-fluoro-4-((5-isopropyl-1-methyl-1H-pyrazol-4-yl)ethynyl)pyrimidin-2-yl)amino)pyridin-3-yl)-2,6-diazaspiro[3.3]heptan-2-yl)ethan-1-one], the figures for the concentration for half-maximal inhibition (IC50) in assay [1] (setting [3]) and in assay [2] (setting [3]) were 16.2 nM and 44.9 nM, respectively.
Turning to `CC(C)n1c(C#Cc2nc(N[C@@H]3CCOC[C@H]3O)ncc2Br)cnc1C(C)(C)O` [Example 88, (3S,4R)-4-((5-bromo-4-((2-(2-hydroxypropan-2-yl)-1-isopropyl-1H-imidazol-5-yl)ethynyl)pyrimidin-2-yl)amino)tetrahydro-2H-pyran-3-ol], the values for the IC50 in assay [1] (setting [3]) and in assay [2] (setting [4]) were 12.6 nM and 51.1 nM, respectively.
`[2H]C([2H])(c1ncc(C#Cc2nc(Nc3ccc(CN4CCN(CC)CC4)cn3)ncc2Cl)n1C(C)C)N1CCC[C@H](O)C1` [Example 137, (S)-1-((5-((5-chloro-2-((5-((4-ethylpiperazin-1-yl)methyl)pyridin-2-yl)amino)pyrimidin-4-yl)ethynyl)-1-isopropyl-1H-imidazol-2-yl)methyl-d2)piperidin-3-ol]: the half-inhibitory concentration (IC50) was 3.17 nM in assay [1] (setting [3]) and 53 nM in assay [2] (setting [3]).
For `CCN1CCN(Cc2ccc(Nc3ncc(Cl)c(C#Cc4cnc(C(C)O)n4C(C)C)n3)nc2)CC1` (stereo not drawn) [Example 122, 1-(5-((5-chloro-2-((5-((4-ethylpiperazin-1-yl)methyl)pyridin-2-yl)amino)pyrimidin-4-yl)ethynyl)-1-isopropyl-1H-imidazol-2-yl)ethan-1-ol], in that order: 2.07 nM and 7.84 nM.
For `CC(C)n1c(C#Cc2nc(Nc3ccc(N4CCN(C)CC4=O)cn3)ncc2Cl)cnc1C(C)(C)O` [Example 94, 1-(6-((5-chloro-4-((2-(2-hydroxypropan-2-yl)-1-isopropyl-1H-imidazol-5-yl)ethynyl)pyrimidin-2-yl)amino)pyridin-3-yl)-4-methylpiperazin-2-one], the results for the 50% inhibitory concentration (IC50) in assay [1] (setting [3]) and in assay [2] (setting [3]) were 5.53 nM and 17.6 nM, respectively.
With `CC(C)n1c(C#Cc2nc(N[C@@H]3CCOC[C@H]3O)ncc2Cl)cnc1C1CCO1` (stereo partly drawn) [Example 112, (3S,4R)-4-((5-chloro-4-((1-isopropyl-2-(oxetan-2-yl)-1H-imidazol-5-yl)ethynyl)pyrimidin-2-yl)amino)tetrahydro-2H-pyran-3-ol], the IC50 in assay [1] (setting [3]) was 179 nM; in assay [2] (setting [3]) it was 1240 nM.
As for `CC(C)n1c(C#Cc2nc(N[C@@H]3CCOC[C@H]3O)ncc2Cl)cnc1[C@H](C)N1CCC[C@H](O)C1` [Example 124, (S)-1-((S)-1-(5-((5-chloro-2-(((3 S,4R)-3-hydroxytetrahydro-2H-pyran-4-yl)amino)pyrimidin-4-yl)ethynyl)-1-isopropyl-1H-imidazol-2-yl)ethyl)piperidin-3-ol], the half-inhibitory concentration (IC50) in assay [1] (setting [3]) stood at 182 nM; in assay [2] (setting [3]), 1160 nM.
For `CC(C)n1c(C#Cc2nc(Nc3ccc(N4CC5(CN(CC(F)(F)F)C5)C4)cn3)ncc2Cl)cnc1CN1CCC[C@H](O)C1` [Example 113, (S)-1-((5-((5-chloro-2-((5-(6-(2,2,2-trifluoroethyl)-2,6-diazaspiro[3.3]heptan-2-yl)pyridin-2-yl)amino)pyrimidin-4-yl)ethynyl)-1-isopropyl-1H-imidazol-2-yl)methyl)piperidin-3-ol], in that order: 5.95 nM and 45.6 nM.
For `CC(C)n1c(C#Cc2nc(N[C@@H]3CCOC[C@H]3O)ncc2Cl)cnc1CN1CCCC(C)(O)C1` (stereo partly drawn) [Example 110, 1-((5-((5-chloro-2-(((3 S,4R)-3-hydroxytetrahydro-2H-pyran-4-yl)amino)pyrimidin-4-yl)ethynyl)-1-isopropyl-1H-imidazol-2-yl)methyl)-3-methylpiperidin-3-ol], in that order: 36.1 nM and 451 nM.
With `[2H]C(C)(O)c1ncc(C#Cc2nc(N[C@@H]3CCOC[C@H]3O)ncc2Cl)n1C(C)C` (stereo partly drawn) [Example 138, (3 S,4R)-4-((S-chloro-4-((2-(1-hydroxyethyl-1-d)-1-isopropyl-1H-imidazol-5-yl)ethynyl)pyrimidin-2-yl)amino)tetrahydro-2H-pyran-3-ol], the concentration for half-maximal inhibition (IC50) was found to be 5.92 nM in assay [1] (setting [3]) and 38.4 nM in assay [2] (setting [3]).
For `CCN1CCN(Cc2ccc(Nc3cc(C#Cc4cnc(C(C)(C)O)n4C(C)C)c(Cl)cn3)nc2)CC1` [Example 77, 2-(5-((5-chloro-2-((5-((4-ethylpiperazin-1-yl)methyl)pyridin-2-yl)amino)pyridin-4-yl)ethynyl)-1-isopropyl-1H-imidazol-2-yl)propan-2-ol], in that order: 1.62 nM and 5.94 nM.
On to `CCN1CCN(Cc2ccc(Nc3ncc(Cl)c(C#Cc4cnn(C)c4C(C)C)n3)nc2)CC1` [Example 69, 5-Chloro-N-(5-((4-ethylpiperazin-1-yl)methyl)pyridin-2-yl)-4-((5-isopropyl-1-methyl-1H-pyrazol-4-yl)ethynyl)pyrimidin-2-amine], for which the half-maximal inhibitory concentration (IC50) in assay [1] (setting [3]) was 4.71 nM; in assay [2] (setting [3]), 38.4 nM.
Take `CC(C)n1c(C#Cc2nc(Nc3ccc(C(=O)N4CCCC4)cn3)ncc2Cl)cnc1C(C)(C)O` [Example 114, (6-((5-chloro-4-((2-(2-hydroxypropan-2-yl)-1-isopropyl-1H-imidazol-5-yl)ethynyl)pyrimidin-2-yl)amino)pyridin-3-yl)(pyrrolidin-1-yl)methanone]: the figures for the IC50 in assay [1] (setting [3]) and in assay [2] (setting [3]) were 7.99 nM and 28.4 nM, respectively.
For `CCN1CCN(Cc2ccc(Nc3ncc(Cl)c(C#Cc4cnc(C(C)(C)O)n4C(C)C)n3)nc2F)CC1` [Example 84, 2-(5-((5-chloro-2-((5-((4-ethylpiperazin-1-yl)methyl)-6-fluoropyridin-2-yl)amino)pyrimidin-4-yl)ethynyl)-1-isopropyl-1H-imidazol-2-yl)propan-2-ol], in that order: 7.44 nM and 48.9 nM.
For `CC(C)n1c(C#Cc2nc(Nc3ccc(C(=O)N(C)C)cn3)ncc2Cl)cnc1C(C)(C)O` [Example 100, 6-((5-chloro-4-((2-(2-hydroxypropan-2-yl)-1-isopropyl-1H-imidazol-5-yl)ethynyl)pyrimidin-2-yl)amino)-N,N-dimethylnicotinamide], in that order: 6.69 nM and 25.9 nM.
On to `CC(C)c1c(C#Cc2nc(Nc3ccc(C4CCN(C)CC4)cn3)ncc2F)cnn1C` [Example 59, 5-fluoro-4-((5-isopropyl-1-methyl-1H-pyrazol-4-yl)ethynyl)-N-(5-(1-methylpiperidin-4-yl)pyridin-2-yl)pyrimidin-2-amine], for which the 50% inhibitory concentration (IC50) in assay [1] (unmarked data: 80 µM ATP in Step 1) stood at 9.64 nM; in assay [2] (setting [4]) it was 38.3 nM.

As a reminder, the IC50 is the concentration that gives 50% inhibition. Higher therefore signals weaker potency.
